Like-named read-outs stand apart in the source and are kept apart here.
System: test plant species
Assay: Post-emergent herbicidal activity test (greenhouse, foliar spray, visual growth reduction)
Format: in vivo
Conditions: post-emergence, 336 h, 140 g ai/ha
Procedure, shortened: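 Visual percent injury (0-100) rated 14 d after treatment, relative to nontreated and solvent-blank plants. Test plants at first or second true leaf stage received an overhead track-sprayer application at 187 L/ha. Compounds were formulated in aqueous acetone/DMSO carrier containing crop oil concentrate and X-77 surfactant.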

[1] = ALOMY: blackgrass (Alopecurus myosuroides), 14 days after application, read-out: Visual Growth Reduction (%) 14 Days After Application, ALOMY
[2] = AMARE: redroot pigweed (Amaranthus retroflexus), 14 days after application, read-out: Visual Growth Reduction (%) 14 Days After Application, AMARE
[3] = AVEFA: wild oat (Avena fatua), 14 days after application, read-out: Visual Growth Reduction (%) 14 Days After Application, AVEFA
[4] = CHEAL: lambsquarters (Chenopodium album), 14 days after application, read-out: Visual Growth Reduction (%) 14 Days After Application, CHEAL
[5] = CIRAR: canada thistle (Cirsium arvense), 14 days after application, read-out: Visual Growth Reduction (%) 14 Days After Application, CIRAR
[6] = CYPES: yellow nutsedge (Cyperus esculentus), 14 days after application, read-out: Visual Growth Reduction (%) 14 Days After Application, CYPES
[7] = DIGSA: crabgrass (Digitaria sanguinalis), 14 days after application, read-out: Visual Growth Reduction (%) 14 Days After Application, DIGSA
[8] = ECHCG: barnyardgrass (Echinochloa crus-galli), 14 days after application, read-out: Visual Growth Reduction (%) 14 Days After Application, ECHCG
[9] = IPOHE: ivy-leaf morning glory (Ipomoea hederacea), 14 days after application, read-out: Visual Growth Reduction (%) 14 Days After Application, IPOHE
[10] = ORYSA: rice (Oryza sativa), 14 days after application, read-out: Visual Growth Reduction (%) 14 Days After Application, ORYSA
[11] = SETFA: giant foxtail (Setaria faberi), 14 days after application, read-out: Visual Growth Reduction (%) 14 Days After Application, SETFA
[12] = SORVU: grain sorghum (Sorghum vulgare), 14 days after application, read-out: Visual Growth Reduction (%) 14 Days After Application, SORVU
[13] = STEME: common chickweed (Stellaria media), 14 days after application, read-out: Visual Growth Reduction (%) 14 Days After Application, STEME
[14] = TRZAS: wheat, spring (Triticum aestivum), 14 days after application, read-out: Visual Growth Reduction (%) 14 Days After Application, TRZAS
[15] = KCHSC: kochia (Bassia scoparia), 14 days after application, read-out: Visual Growth Reduction (%) 14 Days After Application, KCHSC
[16] = blackgrass (Alopecurus myosuroides), 14 Days After Application, read-out: Visual Growth Reduction (%) ALOMY
[17] = canada thistle (Cirsium arvense), 14 Days After Application, read-out: Visual Growth Reduction (%) CIRAR
[18] = crabgrass (Digitaria sanguinalis), 14 Days After Application, read-out: Visual Growth Reduction (%) DIGSA
[19] = lambsquarters (Chenopodium album), 14 Days After Application, read-out: Visual Growth Reduction (%) CHEAL
[20] = redroot pigweed (Amaranthus retroflexus), 14 Days After Application, read-out: Visual Growth Reduction (%) AMARE
[21] = wild oat (Avena fatua), 14 Days After Application, read-out: Visual Growth Reduction (%) AVEFA
[22] = yellow nutsedge (Cyperus esculentus), 14 Days After Application, read-out: Visual Growth Reduction (%) CYPES

SMILES	pest or weed control at 140 g/ha [1] [%]	pest or weed control at 140 g/ha [2] [%]	pest or weed control at 140 g/ha [3] [%]	pest or weed control at 140 g/ha [4] [%]	pest or weed control at 140 g/ha [5] [%]	pest or weed control at 140 g/ha [8] [%]	pest or weed control at 140 g/ha [9] [%]	pest or weed control at 140 g/ha [10] [%]	pest or weed control at 140 g/ha [11] [%]	pest or weed control at 140 g/ha [12] [%]	pest or weed control at 140 g/ha [13] [%]	pest or weed control at 140 g/ha [14] [%]	pest or weed control at 140 g/ha [15] [%]	pest or weed control at 140 g/ha [16] [%]	pest or weed control at 140 g/ha [17] [%]	pest or weed control at 140 g/ha [18] [%]	pest or weed control at 140 g/ha [19] [%]	pest or weed control at 140 g/ha [20] [%]	pest or weed control at 140 g/ha [21] [%]	pest or weed control at 140 g/ha [22] [%]	other results
COC(=O)c1nc(-c2ccc(Cl)cc2)cc(Cl)c1Cl [F80, Methyl 3,4-dichloro-6-(4-chlorophenyl) picolinate]	0 to 29	60 to 74	0 to 29	30 to 44	0 to 29	0 to 29	45 to 59	0 to 29	0 to 29	0 to 29	0 to 29	0 to 29									pest or weed control at 140 g/ha [6]: 0 to 29%; pest or weed control at 140 g/ha [7]: 0 to 29%
COC(=O)c1nc(-c2ccc3c(c2)OC(F)(F)O3)c(F)cc1Cl [F258, Methyl 3-chloro-6-(2,2-difluorobenzo[d][1,3]dioxol-5-yl)-5-fluoropicolinate]						0 to 29	95 to 100	0 to 29	0 to 29	75 to 84	0 to 29	0 to 29	0 to 29	0 to 29	0 to 29	85 to 94	75 to 84	60 to 74	0 to 29	30 to 44	
C=Cc1cc(-c2nc(C(=O)OC)c(Cl)cc2F)c(Cl)cc1C(F)(F)F [F303, Methyl 3-chloro-6-(2-chloro-4-(trifluoromethyl)-5-vinylphenyl)-5-fluoropicolinate]						0 to 29	95 to 100	0 to 29	0 to 29	0 to 29	0 to 29	0 to 29	0 to 29	0 to 29	0 to 29	0 to 29	75 to 84	0 to 29	0 to 29	0 to 29	
COC(=O)c1nc(-c2c(Cl)cc(C(F)(F)F)cc2S(C)(=O)=O)ccc1Cl [F138, methyl 3-chloro-6-(2-chloro-6-(methylsulfonyl)-4-(trifluoromethyl)phenyl)picolinate]	0 to 29	85 to 94	0 to 29	60 to 74	60 to 74	0 to 29	75 to 84	0 to 29	0 to 29	0 to 29	0 to 29	0 to 29	60 to 74								pest or weed control at 140 g/ha [6]: 0 to 29%; pest or weed control at 140 g/ha [7]: 0 to 29%
COC(=O)c1nc(-c2ccc(C(F)(F)F)c(C)c2)ccc1Cl [F308, Methyl 3-chloro-6-(3-methyl-4-(trifluoromethyl)phenyl)picolinate]						0 to 29	0 to 29	0 to 29	0 to 29	0 to 29	0 to 29	0 to 29	0 to 29	0 to 29	0 to 29	0 to 29	0 to 29	45 to 59	0 to 29	0 to 29	

Source: patent US20230017045A1, “PYRIDINE AND PYRIMIDINE CARBOXYLATE HERBICIDES AND METHODS OF USE THEREOF” (Dow AgroSciences LLC, priority 2017, published 2023)
